Test results taken from the supplement of paper PMC10307832.

How the values were obtained:
Test in all cases: relative viability (nuclei count vs DMSO), 5 days (fraction); higher = more cells survive
[1] = compound: CN(C/C=C/C1=CC=C(C=C1)Cl)CC2=CC=CC=C2N(CCO)S(=O)(=O)C3=CC=C(C=C3)OC [KN-93] + Cc1nc(Nc2ncc(C(=O)Nc3c(C)cccc3Cl)s2)cc(N2CCN(CCO)CC2)n1 [Dasatinib] (partner 0.075 µM)
In short: (§1)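 Lung cancer cell lines, seeded in 1536-well plates, were treated the following day by pin tool with a single drug or with five library-drug doses (not always all listed) in √10 steps on top of a fixed anchor-drug dose. Cells were fixed and nuclei stained in one step after 5 days, and nuclei were counted. Relative viability is the nuclei count for treated wells divided by that for vehicle wells, reported as medians of duplicate plates.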

[2] = compound: CN(C/C=C/C1=CC=C(C=C1)Cl)CC2=CC=CC=C2N(CCO)S(=O)(=O)C3=CC=C(C=C3)OC [KN-93] + O=C(c1cc(Cc2n[nH]c(=O)c3ccccc23)ccc1F)N1CCN(C(=O)C2CC2)CC1 [Olaparib] (partner 8 µM)
In short: as §1

[3] = compound: CN(C/C=C/C1=CC=C(C=C1)Cl)CC2=CC=CC=C2N(CCO)S(=O)(=O)C3=CC=C(C=C3)OC [KN-93] + Nc1ncn([C@H]2C[C@H](O)[C@@H](CO)O2)c(=O)n1 [Decitabine] (partner 2 µM)
In short: as §1

[4] = compound: CN(C/C=C/C1=CC=C(C=C1)Cl)CC2=CC=CC=C2N(CCO)S(=O)(=O)C3=CC=C(C=C3)OC [KN-93] + COc1cc2c(Oc3ccc(NC(=O)C4(C(=O)Nc5ccc(F)cc5)CC4)cc3F)ccnc2cc1OCCCN1CCOCC1 [Foretinib] (partner 0.25 µM)
In short: as §1

[5] = compound: CN(C/C=C/C1=CC=C(C=C1)Cl)CC2=CC=CC=C2N(CCO)S(=O)(=O)C3=CC=C(C=C3)OC [KN-93] + CC1(C)CCC(c2ccc(Cl)cc2)=C(CN2CCN(c3ccc(C(=O)NS(=O)(=O)c4ccc(N[C@H](CCN5CCOCC5)CSc5ccccc5)c(S(=O)(=O)C(F)(F)F)c4)cc3)CC2)C1 [Navitoclax] (partner 0.5 µM)
In short: as §1

Cell Line	relative viability ([1]; first compound 0.08 µM)	relative viability ([1]; first compound 0.253 µM)	relative viability ([1]; first compound 2.53 µM)	relative viability ([1]; first compound 8 µM)	relative viability ([2]; first compound 0.08 µM)	relative viability ([2]; first compound 0.253 µM)	relative viability ([2]; first compound 2.53 µM)	relative viability ([2]; first compound 8 µM)	relative viability ([3]; first compound 0.08 µM)	relative viability ([3]; first compound 0.253 µM)	relative viability ([3]; first compound 2.53 µM)	relative viability ([3]; first compound 8 µM)	relative viability ([4]; first compound 0.08 µM)	relative viability ([4]; first compound 0.253 µM)	relative viability ([4]; first compound 2.53 µM)	relative viability ([4]; first compound 8 µM)	relative viability ([5]; first compound 0.08 µM)	relative viability ([5]; first compound 0.253 µM)	relative viability ([5]; first compound 2.53 µM)	relative viability ([5]; first compound 8 µM)
NCI-H1650	0.399	0.262	0.297	0.24	0.702	0.428	0.854	0.608	0.349	0.38	0.427	0.44	1.18	1.16	1.25	0.644	1.24	1.2	1.44	0.951
NCI-H1993	0.518	0.547	0.55	0.47	0.915	0.947	1.14	0.771	0.573	0.548	0.579	0.601	0.774	0.78	0.808	0.672	0.939	0.71	0.861	0.632
HCC-827	0.279	0.302	0.233	0.275	0.745	0.556	0.704	0.608	0.356	0.335	0.332	0.304	1.05	1.09	0.931	0.577	1.04	0.986	0.98	0.872
H3255	0.366	0.343	0.511	0.341	0.519	0.621	0.523	0.485	0.603	0.728	0.54	0.474	0.986	0.902	0.864	0.807	0.56	0.511	0.55	0.124
SK-MES-1	0.42	0.318	0.367	0.261	0.648	0.665	0.935	0.333	0.389	0.357	0.371	0.355	0.857	0.656	0.937	0.999	1.14	1.18	1.56	1.21
EKVX	0.42	0.429	0.358	0.389	0.761	0.558	0.802	0.669	0.332	0.289	0.342	0.319	0.849	0.758	0.911	0.22	0.824	0.742	1.13	0.305
NCI-H838	0.32	0.236	0.334	0.239	0.939	0.709	1.18	0.613	0.436	0.455	0.487	0.427	0.946	0.977	1.13	0.905	1.04	1.06	1.31	0.946
NCI-H647	0.161	0.216	0.253	0.164	0.648	0.766	0.881	0.421	0.373	0.487	0.444	0.409	1.11	1.37	1.54	1.07	0.976	1.41	1.39	0.715
NCI-H1651	0.491	0.461	0.626	0.246	0.203	0.178	0.199	0.179	0.594	0.597	0.623	0.534	0.669	0.845	0.886	0.582	0.997	1.08	1.09	0.482
